In experiment [1] the target is T1, rPfSUB1cat (Plasmodium falciparum, UniProt Q8I0V0).
T1 construct: core domain (rPfSUB1cat) comprising Ser328 to Tyr671; made in house; host or cells: baculovirus-infected insect cells (Tn5), then limited chymotrypsin digestion
The experiment in a line: Cleavage of unlabelled and AMC peptide substrates by rPfSUB1cat (RP-HPLC). Type of experiment: biochemical. The settings on record: for hydrolysis by rPfSUB1cat: prolonged incubations, data not shown; for reduction of substrate peak intensity: by 120 min digestion of equimolar mixture, RP-HPLC. From the text:
(SERA4st1F-6R12); Ac-CITAQDDEEC (called SERA4st1F-6R); and Ac-[…] (SERA4st1F-6R-S). […] Initial hydrolysis rates were then plotted against inhibitor concentration.
In a third approach to investigating the role of prime side interactions in PfSUB1–substrate recognition, we produced a modified form of the SERA4st1 peptide substrate (called SERA4st1-ADA) in which both the P1′ and P3′ residues were replaced by Ala. Based on our MD data, these substitutions would be predicted to abolish potentially important stabilizing interactions with the S′ surface of the enzyme. To compare cleavage efficiencies of SERA4st1 and SERA4st1-ADA, we used a previously-described method in which an equimolar mixture of the two peptides was supplemented with rPfSUB1cat and the rates of peptide hydrolysis established by RP-HPLC analysis of the resulting digestion products ([Child et al., 2010]). Under such conditions, because the peptides effectively act as competing substrates, their relative initial rates of hydrolysis are solely a function of the ability of PfSUB1 to discriminate between them, and so are directly proportional to their relative kcat/Km values, irrespective of their concentration ([Cornish-Bowden, 2004]).

The next experiment deals with rPbSUB1cat. The settings on record: substrates 0.1 μM. From the text:
(§1) Initial hydrolysis rates were then plotted against inhibitor concentration.

For experiment [2], the target named is T1, rPfSUB1cat. Type of experiment: biochemical. To be noted: substrates 0.1 μM.
From the text: as §1

The next experiment addresses T2, rPbSUB1 (Plasmodium berghei, UniProt A0A509AM03).
T2 construct: recombinant Plasmodium falciparum SUB1 catalytic domain (rPfSUB1cat; closed circles) and rPbSUB1cat (closed triangles); 6-His (C); made in house; host or cells: baculovirus-infected insect cells (Tn5), then limited chymotrypsin digestion
Kind of experiment: Cleavage of unlabelled N-acetylated decapeptides by rPbSUB1 (RP-HPLC). Type of experiment: biochemical. To be noted: RP-HPLC examination of digestion products.

Another experiment concerns PfSUB1. The settings on record: cited from earlier work.
The next experiment deals with T3, rPvSUB1 (Plasmodium vivax, UniProt E6Y8B9).
T3 construct: 6-His (C); made in house; host or cells: baculovirus-infected insect cells (Tn5), then limited chymotrypsin digestion
T3 sequence (E6Y8B9 287-604): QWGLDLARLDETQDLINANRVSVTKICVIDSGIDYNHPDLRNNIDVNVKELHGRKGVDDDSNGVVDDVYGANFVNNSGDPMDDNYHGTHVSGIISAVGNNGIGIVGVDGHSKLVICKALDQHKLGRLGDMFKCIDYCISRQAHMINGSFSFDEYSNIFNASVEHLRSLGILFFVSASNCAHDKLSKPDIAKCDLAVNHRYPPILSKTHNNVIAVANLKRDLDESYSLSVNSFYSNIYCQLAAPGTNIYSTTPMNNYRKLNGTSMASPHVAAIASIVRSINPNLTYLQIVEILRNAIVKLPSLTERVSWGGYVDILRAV
The experiment in a line: biochemical. To be noted: IC50 against rPvSUB1, dose-response.
From the text: as §1

In another experiment the target is T4, PbSUB1 (Plasmodium berghei, UniProt A0A509AM03).
T4 construct: recombinant Plasmodium falciparum SUB1 catalytic domain (rPfSUB1cat; closed circles) and rPbSUB1cat (closed triangles); 6-His (C); made in house; host or cells: baculovirus-infected insect cells (Tn5), then limited chymotrypsin digestion
T4 sequence (A0A509AM03 257-574): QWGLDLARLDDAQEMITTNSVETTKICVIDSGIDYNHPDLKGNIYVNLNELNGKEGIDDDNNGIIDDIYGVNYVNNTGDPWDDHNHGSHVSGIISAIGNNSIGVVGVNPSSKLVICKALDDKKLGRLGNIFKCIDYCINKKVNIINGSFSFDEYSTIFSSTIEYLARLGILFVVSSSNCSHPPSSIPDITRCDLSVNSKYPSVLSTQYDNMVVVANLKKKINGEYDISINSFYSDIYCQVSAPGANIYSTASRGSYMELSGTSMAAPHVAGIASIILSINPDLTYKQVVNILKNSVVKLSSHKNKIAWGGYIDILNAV
Kind of experiment: biochemical.
From the text: as §1

The target of experiment [3] is rPfSUB1cat (recombinant P. falciparum SUB1 catalytic domain) (Plasmodium falciparum, UniProt Q8I0V0). Kind of experiment: biochemical. To be noted: for IC50: IC50 for steady-state inhibition of rPfSUB1cat, dose-response, substrate 0.1 μM.
In experiment [4] the target is T5, recombinant Plasmodium falciparum subtilisin-like protease 1 (rPfSUB1), p54/p47 protease species (Plasmodium falciparum, UniProt O61142 218-690).
T5 sequence: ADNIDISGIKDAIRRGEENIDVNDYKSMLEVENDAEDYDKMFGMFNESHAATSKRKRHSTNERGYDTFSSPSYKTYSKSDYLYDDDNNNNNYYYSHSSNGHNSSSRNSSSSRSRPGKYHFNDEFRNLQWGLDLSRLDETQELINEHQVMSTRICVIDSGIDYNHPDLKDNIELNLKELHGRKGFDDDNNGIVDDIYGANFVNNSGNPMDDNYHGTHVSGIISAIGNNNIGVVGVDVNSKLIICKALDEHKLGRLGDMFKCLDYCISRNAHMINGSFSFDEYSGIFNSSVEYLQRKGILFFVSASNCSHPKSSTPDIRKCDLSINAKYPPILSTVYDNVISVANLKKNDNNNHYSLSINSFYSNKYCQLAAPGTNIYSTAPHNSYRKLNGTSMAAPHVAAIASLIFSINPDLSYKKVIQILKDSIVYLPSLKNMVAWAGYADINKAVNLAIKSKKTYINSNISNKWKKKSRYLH
The experiment in a line: cell-based or functional assay.

[5] abbreviates: ref Withers-Martinez et al., 2002.

Several values for one entry are separate records, joined by “and”; a condition that tells them apart may be missing. Equal entries are not always repeated. *1 amine or outer side, *2 acyl side, *3 side chain or, on linkers, in order; H or OH if unused. Where a SMILES comes first, the peptide text is derived from it. Where no end group is shown, it is not given here. [ ]: non-standard residue; d: D form. The star is where a group is joined. ξ: configuration not given here. ξ3Amino2oxobutanoyl = CC(N[*:1])C(=O)C(=O)[*:2]; Abu(ψCOCO) = CC[C@H](N[*:1])C(=O)C(=O)[*:2]; AMC = Cc1cc(=O)oc2cc(N*)ccc12; βAla = NCCC(=O)O; NHcPr = C1CC1N*

T2 sequence (A0A509AM03 257-574): as the sequence (A0A509AM03 257-574) above

Take Ac-EIKAET: the “hydrolysis by rPfSUB1cat” value at rPfSUB1cat [1] is listed as “No hydrolysis”.

For “Ac-CITAQSDEEC (cysteine pairing not given here) [SERA4st1F-6R-S, 6-IATR-labelled fluorogenic substrate with P1′ Ser substitution of SERA4st1F-6R]”, the “fold increase in initial hydrolysis rate by rPbSUB1cat vs SERA4st1F-6R” value in the experiment on rPbSUB1cat was 5.8 fold. The “effect of P1′ Asp to Ser substitution (vs SERA4st1F-6R) on cleavage by rPfSUB1cat” value in the experiment with rPfSUB1cat [2] is “no significant effect”.

As for Ac-VVTGE↓SEETS [Ac-VVTGE ↓ SEETS], at rPbSUB1, the “cleavage by rPbSUB1 at the expected position” value (“cleavage by rPbSUB1” below) was “correctly cleaved”.

As for Ac-TTRAE↓SEEDI [Ac-TTRAE ↓ SEEDI], the “cleavage by rPbSUB1” value at rPbSUB1 is “correctly cleaved”.

Regarding `O=S(=O)(F)Cc1ccccc1` [PMSF, phenylmethylsulfonyl fluoride], the “effect of PMSF on PfSUB1” value in the experiment on PfSUB1 (setting [5]) is given as “unaffected”.

As to `CC[C@H](C)[C@H](NC(=O)[C@H](CCCCN)NC(C)=O)C(=O)N[C@H](C(=O)N[C@@H](C)C(=O)N[C@@H](CCC(N)=O)C(=O)Nc1ccc2c(C)cc(=O)oc2c1)[C@@H](C)O` [Ac-KITAQ-AMC] (Ac-KITAQ-{AMC}), the “hydrolysis by rPfSUB1cat” value on rPfSUB1cat [1] was “completely resistant to hydrolysis”.

Turning to `O=C(O)c1cc[c]([Hg][OH])cc1` [pHMB, para-hydroxymercuribenzoate], in the experiment with PfSUB1 (setting [5]), the “inhibition of PfSUB1 by pHMB” value is recorded as “potently inhibited”.

For the molecule “Ac-KITAQADAES [SERA4st1-ADA, SERA4st1 with P1′ and P3′ residues replaced by Ala]”, the “reduction of substrate peak intensity” value with rPfSUB1cat [1] was about 1%. The “initial cleavage rate, fold lower than that of parental SERA4st1” value with rPfSUB1cat [1] (equimolar mixture of both peptides, SERA4st1 digested ⩽20%) is listed as “at least 80 fold”.

`CC[C@H](NC(=O)[C@H](C)NC(=O)[C@@H](NC(=O)[C@@H](NC(=O)[C@H](CCCCN)NC(C)=O)[C@@H](C)CC)[C@@H](C)O)C(=O)C(=O)NC1CC1` [KS-182] (Ac-KITA[Abu(ψCOCO)]-NHcPr): the IC50 against rPvSUB1 was ~12 µM and 12 µM; against PbSUB1, at least 100 µM; in [3] it was ~6 µM and 6 µM. Moreover, in [3], the Ki turned out to be 7.3 µM.

For the molecule `CC[C@H](C)[C@H](NC(=O)[C@H](CCCCN)NC(C)=O)C(=O)N[C@H](C(=O)N[C@@H](C)C(=O)NC(C)C(=O)C(=O)NCCC(=O)O)[C@@H](C)O` (stereo partly shown) [KS-466] (Ac-KITA[ξ3Amino2oxobutanoyl][βAla]-OH), the IC50 at rPvSUB1 is 2 µM and ~2 µM; in experiment [3], 1 µM and ~1 µM. Moreover, the inhibitory constant (Ki) in [3] came out at 0.7 µM.

For Ac-TTSGQ↓SSTEP [Ac-TTSGQ ↓ SSTEP], the “cleavage by rPbSUB1” value at rPbSUB1 was “correctly cleaved”.

“Ac-KITAQDDEES [SERA4st1, N-acetylated decapeptide based on a PfSUB1 processing site in SERA4]”: the “reduction of substrate peak intensity” value in the experiment with rPfSUB1cat [1] worked out at 84.6%.

With Ac-DVSGQ↓SENHQ [Ac-DVSGQ ↓ SENHQ], the “cleavage by rPbSUB1” value at rPbSUB1 is recorded as “correctly cleaved”.

B1: PfSUB1 prodomain (PD) released by autocatalytic cleavage of rPfSUB1 (domain or fragment)
chain: KEVRSEENGKIQDDAKKIVSELRFLEKVEDVIEKSNIGGNEVDADENSFNPDTEVPIEEIEEIKMRELKDVKEEKNKNDNHNNNNNNNNISSSSSSSSNTFGEEKEEVSKKKKKLRLIVSENHATTPSFFQESLLEPDVLSFLESKGNLSNLKNINSMIIELKEDTTDDELISYIKILEEKGALIESDKLVS
Regarding B1, in the experiment on PfSUB1 (ref Jean et al., 2003), the “inhibitor potency against cognate enzyme” value was about 0.005 µM. Further, the “initial rate of cleavage of fluorogenic substrate SERA4st1F-6R12 (0.1 uM) by rPfSUB1cat (prodomain largely degraded) against an equivalent mass of untreated rPfSUB1 (with its prodomain)” value in [4] came to 9.8 fold.

One may read the IC50 as the point on the concentration scale where inhibition reaches its midpoint. By Ki is commonly meant the equilibrium dissociation constant of an inhibitor or competing ligand from its target.

The values above are taken from article PMC3378952, “Plasmodium subtilisin-like protease 1 (SUB1): Insights into the active-site structure, specificity and function of a pan-malaria drug target” (International Journal for Parasitology, 2012).
